# Assay results as given in patent publication US20240150293A1, “SPIROCYCLOHEXANE DERIVATIVES, PHARMACEUTICAL COMPOSITIONS CONTAINING THEM AND THEIR USES AS ANTI-APOPTOTIC INHIBITORS” (LES LABORATOIRES SERVIER, priority 2021, published 2024).
# pKi: −log10 of the molar value.
# Target: Mcl-1 protein (UniProtKB Q07820) (Homo sapiens (Human), UniProt Q07820)
# Test: Inhibition of Mcl-1 by the fluorescence polarisation assay (Example A, Method A)
# Format: binding
# Conditions: fluorescence polarization assay
# Summary of the method: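 Protein (5 nM) and fluorescein-tagged peptide tracer (1 nM) incubated with 11-point compound series for 2 h at room temperature in HEPES/NaCl/Tween 20 buffer, pH 7.4, 5% DMSO. Displacement read as decrease in polarisation; IC50 fitted by 4-parameter logistic, converted to Ki (cKi or eKi).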
# Chain of Mcl-1 protein (Q07820 whole entry): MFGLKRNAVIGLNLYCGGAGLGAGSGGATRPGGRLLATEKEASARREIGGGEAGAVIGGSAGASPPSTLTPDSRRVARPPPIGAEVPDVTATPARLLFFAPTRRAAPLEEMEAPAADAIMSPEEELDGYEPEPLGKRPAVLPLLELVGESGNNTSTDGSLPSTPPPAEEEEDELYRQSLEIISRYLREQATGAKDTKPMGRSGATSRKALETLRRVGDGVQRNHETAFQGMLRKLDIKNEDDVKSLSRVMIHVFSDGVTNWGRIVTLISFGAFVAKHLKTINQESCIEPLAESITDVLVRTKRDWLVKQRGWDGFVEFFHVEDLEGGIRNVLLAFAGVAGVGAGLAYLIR
row,Compound,pKi
1,"Cc1ccc(S(=O)(=O)N2Cc3ccccc3C23CCC(Nc2cccc(Cl)c2)(C(=O)O)CC3)cc1 (single isomer, unassigned) [Example 29, 4-(3-chloroanilino)-2′-(4-methylbenzene-1-sulfonyl)-2′,3′-dihydrospiro[cyclohexane-1,1′-isoindole]-4-carboxylic acid]",4.80
2,"CC1=Cc2ccccc2[C@]12CC[C@@](Nc1cccc(Br)c1)(C(=O)O)CC2 [Example 142, (1r,4r)-4-(3-bromoanilino)-2′-methylspiro[cyclohexane-1,1′-indene]-4-carboxylic acid]",6.58
3,"COc1ccc2c(c1)[C@]1(CC[C@@](Nc3cccc(Cl)c3)(C(=O)O)CC1)C1(CCCC1)C2 [Example 89, (1r,4r)-4-(3-chloroanilino)-6′-methoxy-3′H-dispiro[cyclohexane-1,1′-indene-2′,1″-cyclopentane]-4-carboxylic acid]",5.67
4,"COc1ccc2c(c1)[C@]1(CC[C@](Nc3cccc(Br)c3)(C(=O)O)CC1)C(Cc1ccccc1)C2 (stereo partly shown) [Example 126, (1s,4s)-2′-benzyl-4-(3-bromoanilino)-6′-methoxy-2′,3′-dihydrospiro[cyclohexane-1,1′-indene]-4-carboxylic acid]",5.04
5,"COc1ccc([C@@H]2Cc3ccccc3[C@]23CC[C@@](Nc2cccc(Br)c2)(C(=O)O)CC3)cc1 [Example 217, (1r,2′S,4S)-4-(3-bromoanilino)-2′-(4-methoxyphenyl)-2′,3′-dihydrospiro[cyclohexane-1,1′-indene]-4-carboxylic acid]",6.32
6,"CN1c2ccccc2[C@]2(CC[C@@](Nc3cccc(Br)c3)(C(=O)O)CC2)C1=O [Example 17, (1s,4s)-4-(3-bromoanilino)-1′-methyl-2′-oxo-1′,2′-dihydrospiro[cyclohexane-1,3′-indole]-4-carboxylic acid]",4.64
7,"O=C(O)[C@]1(Nc2cccc(Cl)c2)CC[C@@]2(CC1)C(Br)=Cc1ccccc12 [Example 74, (1r,4r)-2′-bromo-4-(3-chloroanilino)spiro[cyclohexane-1,1′-indene]-4-carboxylic acid]",4.64
8,"CCN1c2ccccc2[C@]2(CC[C@](Nc3cccc(Br)c3)(C(=O)O)CC2)C1=O [Example 2, (1r,4r)-4-(3-bromoanilino)-1′-ethyl-2′-oxo-1′,2′-dihydrospiro[cyclohexane-1,3′-indole]-4-carboxylic acid]",5.12
9,"COc1ccc(CCOCC2=Cc3ccccc3[C@]23CC[C@@](Nc2cccc(Cl)c2)(C(=O)O)CC3)cc1 [Example 421, (1s,4s)-4-(3-chloroanilino)-2′-{[2-(4-methoxyphenyl)ethoxy]methyl}spiro[cyclohexane-1,1′-indene]-4-carboxylic acid]",6.10
10,"O=C(O)[C@]1(Nc2ccccc2)CC[C@]2(CC1)C(CCCOc1ccnc3ccsc13)=Cc1ccccc12 [Example 455, (1r,4r)-4-anilino-2′-{3-[(thieno[3,2-b]pyridin-7-yl)oxy]propyl}spiro[cyclohexane-1,1′-indene]-4-carboxylic acid]",5.99
11,"C=CCOc1ccc2c(c1)[C@]1(CC2)CC[C@](Nc2cccc(Br)c2)(C(=O)O)CC1 [Example 68, (1r,4s)-4-(3-bromoanilino)-6′-[(prop-2-en-1-yl)oxy]-2′,3′-dihydrospiro[cyclohexane-1,1′-indene]-4-carboxylic acid]",6.52
12,"O=C(O)[C@]1(Nc2cccc(Cl)c2)CC[C@@]2(CC1)c1ccccc1C[C@@H]2c1cccc(Cc2ccccc2)c1 [Example 326, (1r,2′R,4R)-2′-(3-benzylphenyl)-4-(3-chloroanilino)-2′,3′-dihydrospiro[cyclohexane-1,1′-indene]-4-carboxylic acid]",4.71
13,"O=C(O)C1(Nc2cccc(Cl)c2)CCC2(C=Cc3cccnc32)CC1 (single isomer, unassigned) [Example 71, 4-(3-chloroanilino)spiro[cyclohexane-1,7′-cyclopenta[b]pyridine]-4-carboxylic acid]",6.01
14,"CN1c2ccc(C3CC3)cc2[C@]2(CC[C@](Nc3cccc(Br)c3)(C(=O)O)CC2)C1=O [Example 15, (1r,4r)-4-(3-bromoanilino)-5′-cyclopropyl-1′-methyl-2′-oxo-1′,2′-dihydrospiro[cyclohexane-1,3′-indole]-4-carboxylic acid]",4.94
15,"COc1ccc(C2Cc3ccccc3[C@]23CC[C@@](Nc2ccccc2)(C(=O)O)CC3)c(C)c1 (single isomer, unassigned) [Example 256, (1r,4r)-4-anilino-2′-(4-methoxy-2-methylphenyl)-2′,3′-dihydrospiro[cyclohexane-1,1′-indene]-4-carboxylic acid]",4.62
16,"COc1ccc(Cl)c(C2=Cc3ccccc3[C@]23CC[C@@](Nc2cccc(Cl)c2)(C(=O)O)CC3)c1 [Example 246, (1s,4s)-4-(3-chloroanilino)-2′-(2-chloro-5-methoxyphenyl)spiro[cyclohexane-1,1′-indene]-4-carboxylic acid]",5.38
17,"O=C(O)[C@]1(Nc2cccc(Cl)c2)CC[C@]2(CC1)C(CCOCc1ccccc1)=Cc1ccccc12 [Example 395, (1r,4r)-2′-[2-(benzyloxy)ethyl]-4-(3-chloroanilino)spiro[cyclohexane-1,1′-indene]-4-carboxylic acid]",7.00
18,"Cc1ccc2c(c1)[C@]1(CC[C@](Nc3cccc(Br)c3)(C(=O)O)CC1)C(=O)N2C [Example 7, (1r,4r)-4-(3-bromoanilino)-1′,5′-dimethyl-2′-oxo-1′,2′-dihydrospiro[cyclohexane-1,3′-indole]-4-carboxylic acid]",4.62
19,"O=C(O)[C@]1(Nc2cccc(Cl)c2)CC[C@]2(CC1)C(C#Cc1ccccn1)=Cc1ccccc12 [Example 170, (1s,4s)-4-(3-chloroanilino)-2′-[(pyridin-2-yl)ethynyl]spiro[cyclohexane-1,1′-indene]-4-carboxylic acid]",5.72

# Continued, values first:
row,pKi,Compound
1,5.95,"COc1cc(Cl)cc(C2Cc3ccccc3[C@]23CC[C@@](Nc2cccc(Cl)c2)(C(=O)O)CC3)c1 (single isomer, unassigned) [Example 347, (1r,4r)-4-(3-chloroanilino)-2′-(3-chloro-5-methoxyphenyl)-2′,3′-dihydrospiro[cyclohexane-1,1′-indene]-4-carboxylic acid]"
2,6.50,"Cc1n[nH]c2cccc(OCCCC3Cc4ccccc4[C@]34CC[C@@](Nc3cccc(Cl)c3)(C(=O)O)CC4)c12 (mixture of isomers) [Example 453, (1r,4r)-4-(3-chloroanilino)-2′-{3-[(3-methyl-1H-indazol-4-yl)oxy]propyl}-2′,3′-dihydrospiro[cyclohexane-1,1′-indene]-4-carboxylic acid]"
3,6.04,"O=C(O)[C@]1(Nc2cccc(Cl)c2)CC[C@@]2(CC1)c1ccccc1CC2OCCCc1ccccc1 (stereo partly shown) [Example 400, (1s,4s)-4-(3-chloroanilino)-2′-(3-phenylpropoxy)-2′,3′-dihydrospiro[cyclohexane-1,1′-indene]-4-carboxylic acid]"
4,5.33,"Cn1ccc2cc(C3Cc4ccccc4[C@]34CC[C@@](Nc3cccc(Cl)c3)(C(=O)O)CC4)ccc21 (stereo partly shown) [Example 274, (1r,4r)-4-(3-chloroanilino)-2′-(1-methyl-1H-indol-5-yl)-2′,3′-dihydrospiro[cyclohexane-1,1′-indene]-4-carboxylic acid]"
5,6.97,"O=C(O)[C@]1(Nc2cccc(Cl)c2)CC[C@@]2(CC1)c1ccccc1CC2CCCOc1ccccc1C(F)(F)F (stereo partly shown) [Example 443, (1r,4r)-4-(3-chloroanilino)-2′-{3-[2-(trifluoromethyl)phenoxy]propyl}-2′,3′-dihydrospiro[cyclohexane-1,1′-indene]-4-carboxylic acid]"
6,5.38,"COc1cccc(Cl)c1C1Cc2ccccc2[C@]12CC[C@@](Nc1cccc(Cl)c1)(C(=O)O)CC2 (mixture of isomers) [Example 283, (1r,4r)-4-(3-chloroanilino)-2′-(2-chloro-6-methoxyphenyl)-2′,3′-dihydrospiro[cyclohexane-1,1′-indene]-4-carboxylic acid]"
7,4.84,"O=C(O)[C@]1(Nc2cccc(Cl)c2)CC[C@@]2(CC1)c1ccccc1CC2c1ccc2ccoc2c1 (single isomer, unassigned) [Example 290, (1r,4r)-2′-(1-benzofuran-6-yl)-4-(3-chloroanilino)-2′,3′-dihydrospiro[cyclohexane-1,1′-indene]-4-carboxylic acid]"
8,5.46,"O=C(O)[C@]1(Nc2cccc(Cl)c2)CC[C@@]2(CC1)c1ccccc1CC2c1cccc2c1OCC2 (single isomer, unassigned) [Example 296, (1r,4r)-4-(3-chloroanilino)-2′-(2,3-dihydro-1-benzofuran-7-yl)-2′,3′-dihydrospiro[cyclohexane-1,1′-indene]-4-carboxylic acid]"
9,6.01,"O=C(O)[C@]1(Nc2cccc(Cl)c2)CC[C@@]2(CC1)c1ccccc1CC2c1cccc(Cl)c1 (single isomer, unassigned) [Example 343, (1r,4r)-4-(3-chloroanilino)-2′-(3-chlorophenyl)-2′,3′-dihydrospiro[cyclohexane-1,1′-indene]-4-carboxylic acid]"
10,4.05,"COc1ccc(Cl)c(C2Cc3ccccc3[C@]23CC[C@@](Nc2ccccc2)(C(=O)O)CC3)c1 (single isomer, unassigned) [Example 260, (1r,4r)-4-anilino-2′-(2-chloro-5-methoxyphenyl)-2′,3′-dihydrospiro[cyclohexane-1,1′-indene]-4-carboxylic acid]"
11,6.63,"Cc1nc2c(c(OCCCC3Cc4ccccc4[C@]34CC[C@@](Nc3cccc(Cl)c3)(C(=O)O)CC4)n1)C(C)CC2 (stereo partly shown) [Example 468, (1r,4r)-4-(3-chloroanilino)-2′-{3-[(2,5-dimethyl-6,7-dihydro-5H-cyclopenta[d]pyrimidin-4-yl)oxy]propyl}-2′,3′-dihydrospiro[cyclohexane-1,1′-indene]-4-carboxylic acid]"
12,4.11,"COCC(F)(F)CC1Cc2ccccc2[C@]12CC[C@@](Nc1cccc(Cl)c1)(C(=O)O)CC2 (stereo partly shown) [Example 502, (1r,4r)-4-(3-chloroanilino)-2′-(2,2-difluoro-3-methoxypropyl)-2′,3′-dihydrospiro[cyclohexane-1,1′-indene]-4-carboxylic acid]"
